PMC4986899 (RNA, 2016)

Biological target: T1, E. coli MetK (Escherichia coli, UniProt P0A817)
T1 sequence (P0A817 2-384): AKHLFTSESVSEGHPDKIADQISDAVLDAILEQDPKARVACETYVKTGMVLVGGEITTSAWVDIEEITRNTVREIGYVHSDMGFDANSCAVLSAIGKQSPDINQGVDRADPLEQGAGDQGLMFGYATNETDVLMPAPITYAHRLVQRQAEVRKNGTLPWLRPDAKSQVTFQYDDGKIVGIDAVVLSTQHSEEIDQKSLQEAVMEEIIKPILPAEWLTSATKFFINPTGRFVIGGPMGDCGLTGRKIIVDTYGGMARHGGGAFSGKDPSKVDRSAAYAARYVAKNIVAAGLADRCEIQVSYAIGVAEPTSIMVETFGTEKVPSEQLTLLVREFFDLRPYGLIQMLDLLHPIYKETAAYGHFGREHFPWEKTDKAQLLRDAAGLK
Assay: preparative synthesis of […]-methyl S-adenosyl methionine
Type: biochemical
Conditions: co-substrate 1 mM L-methionine methyl-13C; pH 8.2, 100 mM KCl, 10 mM MgCl2, 30 °C

**Q.** For `Nc1ncnc2c1ncn2[C@@H]1O[C@H](COP(=O)(O)OP(=O)(O)OP(=O)(O)O)[C@@H](O)[C@H]1O` [ATP], which “preparative synthesis of 13C-methyl S-adenosyl methionine” value is on record?
**A.** synthesized from methionine and ATP by the E. coli MetK enzyme
